Results: PubChem BioAssay (NCI)
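Five concentrations, 48 hours, 96-well plates. Abbreviation: GI50, concentration required for 50% inhibition of growth. TGI marks complete inhibition of growth.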

Tests used:
Assay in all cases: NCI-60 cell line screen, 48 h
[1] = system: 786-0 renal
[2] = system: A498 renal
[3] = system: ACHN renal
[4] = system: BT-549 breast
[5] = system: CAKI-1 renal
[6] = system: CCRF-CEM leukemia
[7] = system: DU-145 prostate
[8] = system: EKVX NSCLC
[9] = system: HCC-2998 colon
[10] = system: HCT-15 colon
[11] = system: HL-60(TB) leukemia
[12] = system: HOP-62 NSCLC
[13] = system: HOP-92 NSCLC
[14] = system: HS 578T breast
[15] = system: IGROV1 ovarian
[16] = system: K-562 leukemia
[17] = system: KM12 colon
[18] = system: LOX IMVI melanoma
[19] = system: MCF7 breast
[20] = system: MDA-MB-231 breast
[21] = system: MDA-MB-435
[22] = system: MOLT-4 leukemia
[23] = system: NCI-H226 lung
[24] = system: NCI-H460 lung
[25] = system: NCI/ADR-RES ovarian
[26] = system: OVCAR-3 ovarian
[27] = system: OVCAR-5 ovarian
[28] = system: OVCAR-8 ovarian
[29] = system: PC-3 prostate
[30] = system: RPMI-8226 leukemia
[31] = system: RXF 393 renal
[32] = system: SF-268 CNS
[33] = system: SF-295 CNS
[34] = system: SF-539 CNS
[35] = system: SK-MEL-2 melanoma
[36] = system: SK-MEL-28 melanoma
[37] = system: SK-MEL-5 melanoma
[38] = system: SK-OV-3 ovarian
[39] = system: SN12C renal
[40] = system: SNB-19 CNS
[41] = system: SNB-75 CNS
[42] = system: SR leukemia
[43] = system: SW-620 colon
[44] = system: T-47D breast
[45] = system: TK-10 renal
[46] = system: UACC-257 melanoma
[47] = system: UACC-62 melanoma
[48] = system: UO-31 renal
[49] = system: A549 NSCLC
[50] = system: COLO 205 colon
[51] = system: HCT-116 colon
[52] = system: HT29 colon
[53] = system: M14 melanoma
[54] = system: MALME-3M melanoma
[55] = system: NCI-H23 lung
[56] = system: NCI-H522 lung
[57] = system: OVCAR-4 ovarian
[58] = system: U251 CNS

Clc1ccc2oc3c(NCCCN4CCOCC4)c4ccccc4nc3c2c1
GI50 [1]: 1.61 µM
TGI [1]: 4.45 µM
GI50 [2]: 4.06 µM
TGI [2]: 17 µM
GI50 [3]: 0.88 µM
TGI [3]: 2.59 µM
GI50 [4]: 2.37 µM
TGI [4]: 5.51 µM
GI50 [5]: 1.4 µM
TGI [5]: 3.21 µM
GI50 [6]: 0.117 µM
TGI [6]: 5.48 µM
GI50 [7]: 2.76 µM
TGI [7]: 11.5 µM
GI50 [8]: 2.89 µM
TGI [8]: 10.1 µM
GI50 [9]: 1.36 µM
TGI [9]: 3.11 µM
GI50 [10]: 1.53 µM
TGI [10]: 5.33 µM
GI50 [11]: 0.295 µM
TGI [11]: 1.21 µM
GI50 [12]: 1.72 µM
TGI [12]: 4.65 µM
GI50 [13]: 1.32 µM
TGI [13]: 5.64 µM
GI50 [14]: 3.43 µM
TGI [14]: 22.6 µM
GI50 [15]: 2.79 µM
TGI [15]: 22.2 µM
GI50 [16]: 1.56 µM
TGI [16]: 10.2 µM
GI50 [17]: 2.49 µM
TGI [17]: > 100 µM
GI50 [18]: 1.27 µM
TGI [18]: 2.77 µM
GI50 [19]: 1.17 µM
TGI [19]: 3.16 µM
GI50 [20]: 2.27 µM
TGI [20]: 8.43 µM
GI50 [21]: 1.66 µM
TGI [21]: 3.35 µM
GI50 [22]: 0.534 µM
TGI [22]: 12.7 µM
GI50 [23]: 2.2 µM
TGI [23]: 6.2 µM
GI50 [24]: 1.18 µM
TGI [24]: 3.38 µM
GI50 [25]: 1.01 µM
TGI [25]: 5.55 µM
GI50 [26]: 3.29 µM
TGI [26]: 34.7 µM
GI50 [27]: 1.83 µM
TGI [27]: 5.28 µM
GI50 [28]: 1.82 µM
TGI [28]: 5.1 µM
GI50 [29]: 1.78 µM
TGI [29]: 3.99 µM
GI50 [30]: 2.12 µM
TGI [30]: 5.05 µM
GI50 [31]: 1.41 µM
TGI [31]: 2.8 µM
GI50 [32]: 2.32 µM
TGI [32]: > 100 µM
GI50 [33]: 2.76 µM
TGI [33]: 11.3 µM
GI50 [34]: 1.56 µM
TGI [34]: 2.92 µM
GI50 [35]: 3 µM
TGI [35]: 8.79 µM
GI50 [36]: 1.72 µM
TGI [36]: 3.16 µM
GI50 [37]: 4.15 µM
TGI [37]: 15.7 µM
GI50 [38]: 3.23 µM
TGI [38]: 17.1 µM
GI50 [39]: 1.6 µM
TGI [39]: 6.36 µM
GI50 [40]: 3.48 µM
TGI [40]: 20 µM
GI50 [41]: 1.77 µM
TGI [41]: 5.88 µM
GI50 [42]: 1.69 µM
TGI [42]: 8.9 µM
GI50 [43]: 0.839 µM
TGI [43]: 3.21 µM
GI50 [44]: 3.06 µM
TGI [44]: 18.9 µM
GI50 [45]: 4.61 µM
TGI [45]: 20.7 µM
GI50 [46]: 1.78 µM
TGI [46]: 3.5 µM
GI50 [47]: 2.17 µM
TGI [47]: 5.07 µM
GI50 [48]: 1.34 µM
TGI [48]: 3.68 µM

COc1cc2c3c(n(CCCNC4CCCCC4)c(=O)c2cc1OC)-c1cc2c(cc1C3=O)OCO2
GI50 [1]: 1.73 µM
TGI [1]: 3.19 µM
GI50 [2]: 20.8 µM
TGI [2]: 49.1 µM
GI50 [49]: 5.87 µM
TGI [49]: 18.5 µM
GI50 [3]: 8.95 µM
TGI [3]: 33.5 µM
GI50 [4]: 15.2 µM
TGI [4]: 31.9 µM
GI50 [5]: 7.69 µM
TGI [5]: 22.9 µM
GI50 [6]: 0.319 µM
TGI [6]: 13.7 µM
GI50 [50]: 8 µM
TGI [50]: > 54 µM
GI50 [7]: 1.83 µM
TGI [7]: 3.74 µM
GI50 [8]: 14.3 µM
TGI [8]: > 63.8 µM
GI50 [9]: 3.69 µM
TGI [9]: 8.34 µM
GI50 [51]: 1.59 µM
TGI [51]: 3.03 µM
GI50 [10]: 1.62 µM
TGI [10]: 3.21 µM
GI50 [11]: 1.62 µM
TGI [11]: 4.87 µM
GI50 [12]: 15.8 µM
TGI [12]: 43.3 µM
GI50 [13]: 15.5 µM
TGI [13]: 42 µM
GI50 [14]: 49 µM
TGI [14]: > 100 µM
GI50 [52]: 1.82 µM
TGI [52]: 3.66 µM
GI50 [15]: 15.4 µM
TGI [15]: > 100 µM
GI50 [17]: 11.7 µM
TGI [17]: > 59 µM
GI50 [18]: 1.43 µM
TGI [18]: 3 µM
GI50 [53]: 18.3 µM
TGI [53]: 39.2 µM
GI50 [54]: 14.4 µM
TGI [54]: 29.1 µM
GI50 [19]: 1.2 µM
TGI [19]: 2.84 µM
GI50 [20]: 2.18 µM
TGI [20]: 5.13 µM
GI50 [21]: 14.7 µM
TGI [21]: 34.3 µM
GI50 [22]: 0.354 µM
TGI [22]: 3.93 µM
GI50 [23]: 24.8 µM
TGI [23]: > 67 µM
GI50 [55]: 1.86 µM
TGI [55]: 4.22 µM
GI50 [24]: 1.52 µM
TGI [24]: 3.24 µM
GI50 [56]: 10.8 µM
TGI [56]: 59.2 µM
GI50 [25]: 1.78 µM
TGI [25]: 4.45 µM
GI50 [26]: 10.8 µM
TGI [26]: 33 µM
GI50 [57]: 10.9 µM
TGI [57]: 23.9 µM
GI50 [27]: 20.3 µM
TGI [27]: 48.4 µM
GI50 [28]: 18 µM
TGI [28]: 36.6 µM
GI50 [29]: 16.8 µM
TGI [29]: 85.6 µM
GI50 [30]: 1.82 µM
TGI [30]: 6.39 µM
GI50 [31]: 9.22 µM
TGI [31]: 37.8 µM
GI50 [32]: 9.87 µM
TGI [32]: > 69 µM
GI50 [33]: 12.1 µM
TGI [33]: > 58.1 µM
GI50 [34]: 4.57 µM
TGI [34]: 8.91 µM
GI50 [35]: > 100 µM
TGI [35]: > 100 µM
GI50 [36]: 22.7 µM
TGI [36]: > 55.7 µM
GI50 [37]: 18.4 µM
TGI [37]: 36.3 µM
GI50 [38]: 20.8 µM
TGI [38]: 51.1 µM
GI50 [39]: 18.2 µM
TGI [39]: > 57.8 µM
GI50 [40]: 26.2 µM
TGI [40]: > 76.5 µM
GI50 [41]: 11.9 µM
TGI [41]: 25.5 µM
GI50 [42]: 0.245 µM
TGI [42]: 4.17 µM
GI50 [43]: 1.44 µM
TGI [43]: 4.18 µM
GI50 [44]: 20.8 µM
TGI [44]: 61.4 µM
GI50 [45]: 20.9 µM
TGI [45]: 36.7 µM
GI50 [58]: 7.85 µM
TGI [58]: 51.6 µM
GI50 [46]: 18.9 µM
TGI [46]: 43 µM
GI50 [47]: 27 µM
TGI [47]: > 66.5 µM
GI50 [48]: 13.3 µM
TGI [48]: 27.3 µM

Clc1ccc2c(N/N=C/c3c[nH]c4ccccc34)ccnc2c1
GI50 [1]: 1.41 µM
TGI [1]: 2.77 µM
GI50 [2]: 1.51 µM
TGI [2]: 2.87 µM
GI50 [3]: 1.87 µM
TGI [3]: 3.27 µM
GI50 [4]: 1.55 µM
TGI [4]: 2.91 µM
GI50 [5]: 1.68 µM
TGI [5]: 3.1 µM
GI50 [50]: 1.79 µM
TGI [50]: 3.42 µM
GI50 [7]: 1.53 µM
TGI [7]: 2.93 µM
GI50 [10]: 0.373 µM
TGI [10]: 1.49 µM
GI50 [12]: 1.67 µM
TGI [12]: 3.25 µM
GI50 [13]: 0.539 µM
TGI [13]: 2.02 µM
GI50 [17]: 1.79 µM
TGI [17]: 3.33 µM
GI50 [53]: 1.73 µM
TGI [53]: 3.18 µM
GI50 [54]: 1.76 µM
TGI [54]: 3.27 µM
GI50 [20]: 1.65 µM
TGI [20]: 3.17 µM
GI50 [21]: 1.75 µM
TGI [21]: 3.18 µM
GI50 [22]: 1.05 µM
TGI [22]: 3.83 µM
GI50 [23]: 1.88 µM
TGI [23]: 4.54 µM
GI50 [55]: 1.62 µM
TGI [55]: 3.17 µM
GI50 [56]: 1.77 µM
TGI [56]: 3.32 µM
GI50 [25]: 1.93 µM
TGI [25]: 4.45 µM
GI50 [57]: 1.83 µM
TGI [57]: 3.63 µM
GI50 [27]: 1.63 µM
TGI [27]: 3.04 µM
GI50 [29]: 1.55 µM
TGI [29]: 2.95 µM
GI50 [31]: 1.47 µM
TGI [31]: 2.83 µM
GI50 [33]: 1.82 µM
TGI [33]: 3.25 µM
GI50 [34]: 1.72 µM
TGI [34]: 3.12 µM
GI50 [35]: 1.83 µM
TGI [35]: 3.35 µM
GI50 [36]: 1.81 µM
TGI [36]: 3.23 µM
GI50 [37]: 1.75 µM
TGI [37]: 3.14 µM
GI50 [38]: 1.67 µM
TGI [38]: 3.13 µM
GI50 [41]: 1.38 µM
TGI [41]: 2.72 µM
GI50 [43]: 0.793 µM
TGI [43]: 2.2 µM
GI50 [45]: 2.09 µM
TGI [45]: 3.57 µM
GI50 [58]: 0.837 µM
TGI [58]: 2.11 µM
GI50 [46]: 1.65 µM
TGI [46]: 3.04 µM
GI50 [48]: 1.32 µM
TGI [48]: 2.66 µM
